Data from PMC11699130, “Design and synthesis of antiproliferative 2-oxoindolin-3-ylidenes incorporating urea function with potential VEGFR-2 inhibitory properties” (Scientific Reports, 2025).

Experiments:
Type in all cases: cell-based
[1] = system: HCT116 (colon) carcinoma cell line; test: MTT antiproliferation assay, HCT116; settings: for IC50: Homo sapiens, HCT-116, MTT, 72 h incubation, HCT116 (colon), read-out: IC50, μM ± SD, HCT116; for SI (safety/selectivity index), HCT116: in brackets after IC50, normal RPE1 relative to HCT116
Excerpt: (§1) Antiproliferation properties against normal RPE1 (human immortalized retinal pigment epithelial) cell line were also considered for safety/selectivity index (SI) determination of each respective agent synthesized (Table 1, Supplementary Figs. S61–S64). […]
(§2) All the biological studies conducted obey the standards and approved by the Research Ethics Committee, National Research Centre, Egypt (associated with project ID:
(§3) Antiproliferation properties
(§4) The synthesized compounds 12a‒j were screened for their antiproliferation properties against HCT116 (colon), MCF7 (breast) and PaCa2 (pancreatic) cancer cell lines by the standard mitochondrial dependent reduction of yellow MTT [3 -(4,5-dimethylthiazol-2- […]
(§5) considered as standard reference/drug. Cells were suspended in DMEM medium for MCF7, PaCa-2 and McCoy’s 5A for HCT116 in addition to 1% antibiotic–antimycotic mixture (10000 μg ml-1 potassium penicillin, 10000 μg ml-1 streptomycin sulfate and 25 μg ml-1 amphotericin B), 10% fetal bovine serum and 1% L-glutamine at 37 °C, under 5% CO2 and 95% humidity. Cells were seeded at concentration of 30000 cells per well in fresh complete growth medium in 96-well tissue culture microtiter plates for 24 h. Media […]
(§6) was aspirated, fresh complete medium was added and cells were incubated with different concentrations of the tested compound to give a final concentration of [50, 25, 12.5 and 6.25 μM “in addition to 3.125, 1.56 and 0.78 μM in case of high potent a nalogs”). 0.5% DMSO was used as a negative control. Triplicate wells were prepared for each individual dose. After 72 h of incubation, medium was aspirated, 40 μl MTT salt (2.5 mg ml -1) was added to each well and incubated for further 4 h at 37 °C. To stop the reaction and dissolve the formed crystals, 150 μl of 10% sodium dodecyl sulfate (SDS) in deionized water was added to each well and incubated overnight at 37 °C. The absorbance was then measured at 570 nm and a reference wavelength of 595 nm.
(§7) Data were collected as mean values for experiments performed in triplicates for each individual dose which had been measured by MTT assay. Control experiments did […]
(§8) The cell surviving fraction was calculated according to the following equation.
(§9) Surviving fraction = Opticaldensity(O.D.)oftreatedcells
(§10) The agents synthesized were also tested against RPE1 (normal human immortalized retinal pigment epithelial cell line) cell (in DMEM -F12 medium) to determine the toxicity/selectivity towards normal cells relative to the cancer cell lines […]
(§11) The IC50 (concentration required to produce 50% inhibition of cell growth compared to the control experiment) was determined using Graph-Pad PRISM version-5 software. Statistical calculations for determination of the mean and standard division (SD) values were determined by SPSS 16 so ftware. The observed anti-proliferative properties are presented in Table 1 ( Supplementary Figs. S61‒S64). […]

[2] = system: MCF7 (breast) carcinoma cell line; test: MTT antiproliferation assay, MCF7; settings: for IC50: Homo sapiens, MTT, 72 h incubation, MCF7 (breast), read-out: IC50, μM ± SD, MCF7; for SI (safety/selectivity index), MCF7: in brackets after IC50, normal RPE1 relative to MCF7
Excerpt: as §1, §2, §3, §4, §5, §6, §7, §8, §9, §10, §11

[3] = system: PaCa2 (pancreatic) carcinoma cell line; test: MTT antiproliferation assay, PaCa2; settings: for IC50: PaCa-2, MTT, 72 h incubation, PaCa2 (pancreatic), read-out: IC50, μM ± SD, PaCa2; for SI (safety/selectivity index), PaCa2: in brackets after IC50, normal RPE1 relative to PaCa2
Excerpt: as §1, §2, §3, §4, §5, §6, §7, §8, §9, §10, §11

[4] = system: RPE1 (human immortalized retinal pigment epithelial) cell line; test: MTT assay on normal cells for safety/selectivity; settings: RPE-1, read-out: IC50, μM ± SD, RPE1
Method: as §1, §6, §7, §8, §9, §10, §11

VEGFR-2 = biological target: T1, VEGFR-2 (Homo sapiens, UniProt P35968); test: VEGFR-2 inhibitory properties by western blotting; settings: for Relative quantification (RQ): VEGFR-2 western blot band, normalised to beta actin, at 10 μM, control RQ 3.290; for inhibition at 10 µM: western blotting, read-out: % Inhibition against VEGFR-2
T1 construct: lysed cells; endogenous in cells
Method: VEGFR-2 inhibitory properties […]
standard/drug) was determined at 10 μM by the western blotting technique obeying the manufacturer’s instruction (Santa Cruz Biotechnology, Inc .).5
Protein extraction procedure
The ReadyPrepTM protein extraction kit (total protein) provided by Bio-Rad Inc.
(Catalog #163-2086) employed by the manufacturer, was added to each sample of the lysed cells. Bradford Protein Assay Kit (SK3041) for quantitative protein analysis was provided by Bio-basic Inc. (Markham Ontario L3R 8T4 Canada). A Bradford assay was performed according to manufacturer’s instructions to determine protein concentration in each sample. 20 μg protein concentration of each sample was then loaded with an equal volume of 2x Laemmli sample buffer containing 4% SDS, 10% 2-mercaptoehtanol, 20% glycerol, 0.004% bromophenol blue and 0.125 M Tris HCl. The pH was checked and brought to 6.8. Each previous mixture was boiled at 95°C for 5 min to ensure denaturation of protein before loading on polyacrylamide gel electrophoresis.
Protein separation by electrophoresis
Samples were separated on a polyacrylamide gel; the procedure was abbreviated as SDS-PAGE form Sodium Dodecyl Sulfate PolyAcrylamide Gel Electrophoresis, which is a standard technique for separating proteins according to their molecular weight.
Polyacrylamide gels were performed using TGX Stain-Free™ FastCast™ Acrylamide Kit (SDS-PAGE), which was provided by Bio-Rad Laboratories inc Cat # 161-0181. The SDS-PAGE TGX Stain-Free FastCast was prepared according to manufacturer’s […]
Protein blotting (transfer of proteins from the gel to the membrane)
The gel was assembled in transfer sandwich from below to above (filter paper, PVDF membrane, gel and filter paper). The sandwich was placed in the transfer tank with 1x transfer buffer, which is composed of 25 mM Tris and 190 mM glycine and 20% methanol. Then, the blot was run for 7 min . at 25 V to allow protein bands transfer from gel to membrane using BioRad Trans-Blot Turbo.
The membrane was blocked in tris -buffered saline with Tween 20 (TBST) buffer and 3% bovine serum albumin (BSA) at room temperature for 1 hr. The components of blocking […]
buffer were as follow; 20 mM Tris pH 7.5, 150 mM NaCl, 0.1% Tween 20 and 3% bovine serum albumin (BSA).
Incubation with the primary antibody
Primary antibody of VEGFR2 was purchased. Primary antibody was diluted in TBST according to manufactured instructions.

T1 sequence (P35968 20-1356): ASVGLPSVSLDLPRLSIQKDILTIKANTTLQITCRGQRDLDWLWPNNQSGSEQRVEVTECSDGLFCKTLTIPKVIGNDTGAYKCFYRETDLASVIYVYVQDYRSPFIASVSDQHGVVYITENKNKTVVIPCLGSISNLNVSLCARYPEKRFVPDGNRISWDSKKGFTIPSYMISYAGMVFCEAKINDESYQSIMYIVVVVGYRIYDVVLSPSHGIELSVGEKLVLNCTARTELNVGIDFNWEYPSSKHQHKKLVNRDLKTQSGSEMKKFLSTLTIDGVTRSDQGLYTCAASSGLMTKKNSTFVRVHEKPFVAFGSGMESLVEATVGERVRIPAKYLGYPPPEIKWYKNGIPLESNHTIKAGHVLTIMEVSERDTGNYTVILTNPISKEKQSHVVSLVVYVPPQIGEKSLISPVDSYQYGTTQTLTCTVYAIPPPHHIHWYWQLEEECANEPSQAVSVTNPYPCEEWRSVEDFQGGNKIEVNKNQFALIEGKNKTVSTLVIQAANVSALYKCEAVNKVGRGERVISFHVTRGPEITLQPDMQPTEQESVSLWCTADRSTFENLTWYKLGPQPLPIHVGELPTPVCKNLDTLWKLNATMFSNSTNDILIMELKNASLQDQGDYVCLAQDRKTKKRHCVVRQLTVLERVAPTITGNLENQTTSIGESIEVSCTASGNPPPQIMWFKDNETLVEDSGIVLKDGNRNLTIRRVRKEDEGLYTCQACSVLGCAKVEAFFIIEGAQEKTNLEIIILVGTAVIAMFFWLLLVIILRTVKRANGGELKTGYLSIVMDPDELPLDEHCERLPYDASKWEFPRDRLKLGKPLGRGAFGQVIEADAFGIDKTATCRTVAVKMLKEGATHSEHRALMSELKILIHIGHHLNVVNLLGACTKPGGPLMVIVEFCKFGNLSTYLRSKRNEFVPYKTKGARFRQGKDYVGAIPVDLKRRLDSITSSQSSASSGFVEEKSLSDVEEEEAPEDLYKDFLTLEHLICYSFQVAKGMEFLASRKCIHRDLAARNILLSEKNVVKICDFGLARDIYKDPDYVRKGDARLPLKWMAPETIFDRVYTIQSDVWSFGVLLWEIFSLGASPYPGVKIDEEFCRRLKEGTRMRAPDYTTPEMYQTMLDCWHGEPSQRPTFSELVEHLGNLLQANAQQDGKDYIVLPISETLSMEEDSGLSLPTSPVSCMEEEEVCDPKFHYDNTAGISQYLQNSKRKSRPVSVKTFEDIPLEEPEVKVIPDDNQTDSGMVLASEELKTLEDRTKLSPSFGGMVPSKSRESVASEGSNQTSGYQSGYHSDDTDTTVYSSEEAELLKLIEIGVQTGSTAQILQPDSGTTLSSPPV

Row | IC50 [1] [µM] | IC50 [2] [µM] | IC50 [3] [µM] | Relative quantification (RQ) (VEGFR-2) | inhibition at 10 µM (VEGFR-2) [%] | SMILES | SI (safety/selectivity index), HCT116 [1] | SI (safety/selectivity index), MCF7 [2] | SI (safety/selectivity index), PaCa2 [3] | IC50 [4] [µM] | fold more potent than sunitinib ([3]; PaCa2, ratio of IC50 values)
1 | 9.57 ± 0.949 | 11.8 ± 0.937 | 13.34 ± 0.091 |  |  | CCN(CC)CCNC(=O)c1c(C)[nH]c(/C=C2\C(=O)Nc3ccc(F)cc32)c1C [Sunitinib, reference compound] |  |  |  |  | 
2 | 11.9 ± 2.53 | 3.91 ± 0.78 | 7 ± 1.11 | 0.538 | 83.6 | O=C(Nc1ccccc1)Nc1cccc(C(=O)/C=C2/C(=O)Nc3ccc(Cl)cc32)c1 [Compound 12e, (E)-1-{3-[2-(5-Chloro-2-oxoindolin-3-ylidene)acetyl]phenyl}-3-phenylurea] | 1.229 | 3.738 | 2.087 | 14.6 ± 0.316 | 
3 | 6.54 ± 0.452 | 2.08 ± 0.126 | 4.09 ± 0.172 | 0.422 | 87.2 | O=C(Nc1ccccc1)Nc1ccc(C(=O)/C=C2/C(=O)Nc3ccccc32)cc1 [Compound 12b, (E)-1-{4-[2-(2-Oxoindolin-3-ylidene)acetyl]phenyl}-3-phenylurea] | 1.277 | 4.014 | 2.043 | 8.36 ± 0.374 | 
4 | 5.58 ± 0.636 | 2.07 ± 0.081 | 4 ± 0.369 | 0.475 | 85.6 | Cc1ccc2c(c1)/C(=C\C(=O)c1ccc(NC(=O)Nc3ccccc3)cc1)C(=O)N2 [Compound 12h, (E)-1-{4-[2-(5-Methyl-2-oxoindolin-3-ylidene)acetyl]phenyl}-3-phenylurea] | 1.523 | 4.107 | 2.128 | 8.5 ± 0.466 | about 3.34 fold
5 | 13.3 ± 1.35 | 3.13 ± 0.395 | 5.24 ± 0.502 | 0.746 | 77.3 | O=C(Nc1ccccc1)Nc1cccc(C(=O)/C=C2/C(=O)Nc3ccccc32)c1 [Compound 12a, (E)-1-{3-[2-(2-Oxoindolin-3-ylidene)acetyl]phenyl}-3-phenylurea] | 1.022 | 4.355 | 2.606 | 13.6 ± 0.659 | 
6 | 6.29 ± 0.912 | 4.41 ± 0.544 | 5.32 ± 0.228 | 0.500 | 84.8 | O=C(Nc1ccccc1)Nc1ccc(C(=O)/C=C2/C(=O)Nc3ccc(Br)cc32)cc1 [Compound 12g, (E)-1-{4-[2-(5-Bromo-2-oxoindolin-3-ylidene)acetyl]phenyl}-3-phenylurea] | 2.173 | 3.101 | 2.572 | 13.7 ± 0.85 | 
7 | 27.2 ± 2.95 | 8.96 ± 0.767 | 7.64 ± 0.08 | 0.634 | 80.7 | COc1ccc2c(c1)/C(=C\C(=O)c1cccc(NC(=O)Nc3ccccc3)c1)C(=O)N2 [Compound 12i, (E)-1-{3-[2-(5-Methoxy-2-oxoindolin-3-ylidene)acetyl]phenyl}-3-phenylurea] | 1.111 | 3.370 | 3.952 | 30.2 ± 0.948 | 
8 | 5.78 ± 0.593 | 2.9 ± 0.3 | 4.96 ± 0.201 | 0.491 | 85.1 | O=C(Nc1ccccc1)Nc1ccc(C(=O)/C=C2/C(=O)Nc3ccc(F)cc32)cc1 [Compound 12d, (E)-1-{4-[2-(5-Fluoro-2-oxoindolin-3-ylidene)acetyl]phenyl}-3-phenylurea] | 1.898 | 3.779 | 2.214 | 11 ± 0.429 | 
9 | 6.58 ± 0.923 | 3.41 ± 0.761 | 5.81 ± 0.63 | 0.517 | 84.3 | O=C(Nc1ccccc1)Nc1ccc(C(=O)/C=C2/C(=O)Nc3ccc(Cl)cc32)cc1 [Compound 12f, (E)-1-{4-[2-(5-Chloro-2-oxoindolin-3-ylidene)acetyl]phenyl}-3-phenylurea] | 1.630 | 3.144 | 1.845 | 10.7 ± 0.766 | 
10 | 14.4 ± 1.47 | 5.81 ± 0.629 | 6.8 ± 0.514 | 0.472 | 85.6 | O=C(Nc1ccccc1)Nc1cccc(C(=O)/C=C2/C(=O)Nc3ccc(F)cc32)c1 [Compound 12c, (E)-1-{3-[2-(5-Fluoro-2-oxoindolin-3-ylidene)acetyl]phenyl}-3-phenylurea] | 1.483 | 3.669 | 3.133 | 21.31 ± 0.026 | 
11 | 6.15 ± 0.539 | 1.69 ± 0.067 | 4.49 ± 0.785 | 0.678 | 79.4 | COc1ccc2c(c1)/C(=C\C(=O)c1ccc(NC(=O)Nc3ccccc3)cc1)C(=O)N2 [Compound 12j, (E)-1-{4-[2-(5-Methoxy-2-oxoindolin-3-ylidene)acetyl]phenyl}-3-phenylurea] | 1.400 | 5.090 | 1.917 | 8.6 ± 0.334 | 
